Values of other authors in patent US20260204362A1, “METHOD FOR DETERMINING A TARGET […] COMPOUND COMPRISING A TARGET BIODEGRADABILITY” (BASF SE, priority 2022, published 2026).

Details: known values for test molecules from the NITE database; OECD 301 (A-F) test setups, measurement uncertainty ca. 10%

Row | SMILES | Biodegradability (data) in % [%]
1 | BrCCCCBr [BrCCCCBr] | 17
2 | CCC(CC)C(=O)OCCOCCOCCOC(=O)C(CC)CC [CCC(CC)C(═O)OCCOCCOCCOC(═O)C(CC)CC] | 81
3 | CCCCN(CCCC)C(=S)[S][Ni][S]C(=S)N(CCCC)CCCC [CCCCN(CCCC)C(═S)S[Ni]SC(═S)N(CCCC)CCCC] | 3
4 | CNCCS(=O)(=O)O [CNCCS(═O)(═O)O] | 62
5 | OCC=CCO [OCC═CCO] | 57
